≈ marks a conversion by molar mass, not a printed value.
Tests used:
[1] = tested on: STAT3 transcriptional activity in U3A cells; test: STAT3-dependent luciferase reporter assay; format: cell-based, human
Protocol: STAT3-dependent luciferase activity was then used as a measure of STAT3 transcriptional activity.
(§1) Cells were stimulated with 10 ng/ml interleukin 6 (Peprotech) or 10 ng/ml OSM (Peprotech). Cells were stimulated for 15 min for whole cell lysate immunoblotting, 60 to 90 min for qRT–PCR, and 5 to 6 h for luciferase reporter assays.
U3A cells (3 × 10^3) were plated in white opaque 96-well plates and allowed to adhere overnight. For siRNA-mediated knockdown, cells were left in the incubator for 48 h. For drug-mediated inhibition, cells were pretreated with compound for 1 h. Cells were then stimulated with cytokine for 5 to 6 h to activate STAT3. Luciferase activity was detected using the Bright-Glo Luciferase Assay System (Promega) and quantitated using a Luminoskan Ascent Microplate Reader (Labsystems).

MDA-MB-468 cells = test: Viability assay (CellTiter-Glo, number of viable cells); format: cell-based, human; details: 300 μg/ml folinic acid, 48 h
Protocol: We specifically hypothesized that folinic acid would prevent pyrimethamine-mediated loss of viability and loss of STAT3 transcriptional activity by bypassing DHFR and restoring the folate-dependent processes required for STAT3 transcriptional activity. […] Since MDA-MB-468 cells are dependent on STAT3 activity for survival, loss of viability can reflect STAT3 inhibition.
Cells (3–5 × 10^3) were plated in white opaque 96-well plates. The next day, cells were treated as indicated. ATP levels were detected at the indicated time points as a proxy for number of viable cells using the CellTiter-Glo Luminescent Cell Viability Assay (Promega). Luminescence was measured using a Luminoskan Ascent Microplate Reader (Labsystems).

[2] = tested on: STAT3 target genes in U3A cells; test: STAT3 target gene expression by qRT-PCR in U3A cells; format: cell-based, human
[3] = tested on: STAT3 target genes in SKBR3 cells; test: STAT3 target gene expression by qRT-PCR in SKBR3 cells; format: cell-based, human; details: 300 μg/ml folinic acid
Protocol: as §1
Total RNA was extracted from cells using the RNeasy Mini Kit (Qiagen). Complementary DNA was generated using the TaqMan Reverse Transcription Reagents (Invitrogen). qPCR was performed in triplicate or quadruplicate using the Power SYBR Green PCR Master Mix (Invitrogen) on a 7500 Real-Time PCR System (Applied Biosystems) or a QuantStudio 6 Flex Real-Time PCR System (Applied Biosystems). Specificity of amplification was confirmed by melting curve analysis. Cycle threshold (CT) values for target genes were normalized to the endogenous reference gene GAPDH. Primer sequences (Table S3) were designed from the University of California Santa Cruz genome browser reference mRNA sequences using Primer3 ([43]).

[4] = Solubility limit of folic acid in cell experiments; format: physicochemical; details: culture media; read-out: maximum concentration testable because of solubility limitations
[5] = tested on: pSTAT3 in MDA-MB-468 cells; test: STAT3 tyrosine phosphorylation by immunoblotting; format: cell-based, human; details: 24 h, immunoblot
[6] = tested on: polar metabolites of MDA-MB-468 cells; test: LC/MS-based metabolite profiling; format: cell-based, human; details: MDA-MB-468, 24 h, 10 μM pyrimethamine or 0.05 μM methotrexate
[7] = tested on: STAT3 target genes in MDA-MB-468 cells; test: STAT3 target gene expression by qRT-PCR in MDA-MB-468 cells; format: cell-based, human; details: MDA-MB-468, 10 μM, 24 h

Cc1cn([C@H]2C[C@H](O)[C@@H](CO)O2)c(=O)[nH]c1=O [thymidine]
effect on pyrimethamine inhibition of STAT3 transcriptional activity (viable cells, luciferase, target genes) ([1]; thymidine added with 10 μM pyrimethamine): reduced the ability | rescue of methotrexate-mediated loss of STAT3 activity ([1]; thymidine added with methotrexate): unable to rescue

Nc1nc(=O)c2c([nH]1)NCC(CNc1ccc(C(=O)N[C@@H](CCC(=O)O)C(=O)O)cc1)N2C=O (mixture of isomers) [folinic acid]
effect on TG101-dependent loss of viable cells (MDA-MB-468 cells): very little effect | effect on pyrimethamine-dependent and methotrexate-dependent decreases in the number of viable cells (MDA-MB-468 cells): almost completely prevented | effect on pyrimethamine-mediated loss of OSM-stimulated BCL6 expression ([2]; 300 μg/ml folinic acid): completely prevented | rescue of the effect of methotrexate on STAT3-dependent luciferase ([1]; 1 μM methotrexate): able to rescue | effect on TG101-mediated loss of STAT3-dependent luciferase ([1]; 10 μM TG101): no effect | effect on the ability of pyrimethamine to inhibit OSM-stimulated STAT3 transcriptional activity ([1]; 10 μM pyrimethamine, tested concentrations of folate): significantly reduced | effect on pyrimethamine-mediated loss of OSM-stimulated BCL6 expression [3]: partially prevented

Nc1nc2ncc(CNc3ccc(C(=O)N[C@@H](CCC(=O)O)C(=O)O)cc3)nc2c(=O)[nH]1 [folic acid]
solubility [4]: 10 µg/mL (≈ 22.7 µM)

CN(Cc1cnc2nc(N)nc(N)c2n1)c1ccc(C(=O)N[C@@H](CCC(=O)O)C(=O)O)cc1 [methotrexate]
total / constitutive STAT3 tyrosine phosphorylation (pSTAT3) [5]: decrease | deoxyuridine monophosphate level compared with DMSO or ruxolitinib [6]: significantly accumulated | purine synthesis intermediates 5-aminoimidazole-4-carboxamide ribonucleotide and glycineamide ribonucleotide [6]: significant increase | OSM-stimulated expression of BCL6 and STAT3 ([2]; 1 μM 1 h, 10 ng/ml OSM 90 min): significantly reduced | OSM-stimulated STAT3 activity (luciferase) ([1]; 0.5 and 1 μM, 1 h pretreatment, OSM 5 h): decreased

Cc1cnc(Nc2ccc(OCCN3CCCC3)cc2)nc1Nc1cccc(S(=O)(=O)NC(C)(C)C)c1 [TG101, TG101348]
SOCS3 expression in the presence of folinic acid ([7]; 300 μg/ml folinic acid): still reduced | SOCS3 expression in the absence of folinic acid [7]: significantly reduced

From publication PMC8800111 (The Journal of Biological Chemistry, 2021)
